ChEMBL document CHEMBL1124218, “Inhibition of murine thymidylate synthase and human dihydrofolate reductase by 5,8-dideaza analogues of folic acid and aminopterin” (J Med Chem, 1988)

molecular target: Thymidylate synthase (Mus musculus, UniProt P07607); test: Inhibitory activity against thymidylate synthase isolated from L1210 leukemia cells; assay type: cell-free; conditions: read-out: I50
Sequence (P07607 whole entry): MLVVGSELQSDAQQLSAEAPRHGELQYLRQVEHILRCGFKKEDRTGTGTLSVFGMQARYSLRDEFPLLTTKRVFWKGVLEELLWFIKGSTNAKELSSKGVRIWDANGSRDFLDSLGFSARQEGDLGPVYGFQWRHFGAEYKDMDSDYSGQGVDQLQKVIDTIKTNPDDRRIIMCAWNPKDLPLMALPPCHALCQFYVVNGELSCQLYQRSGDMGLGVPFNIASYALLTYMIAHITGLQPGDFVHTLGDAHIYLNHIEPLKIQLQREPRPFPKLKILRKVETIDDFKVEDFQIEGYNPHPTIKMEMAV

IC50 [nM] | SMILES
220 | Nc1nc(O)c2cc(CSc3ccc(C(=O)NC(CCC(=O)O)C(=O)O)cc3)ccc2n1 (stereo not drawn)
12000 | Nc1nc(O)c2cc(COc3ccc(C(=O)NC(CCC(=O)O)C(=O)O)cc3)ccc2n1 (stereo not drawn)
9800 | Nc1nc(O)c2cc(CN(C=O)c3ccc(C(=O)NC(CCC(=O)O)C(=O)O)cc3)ccc2n1 (stereo not drawn)
3200 | C=CCN(Cc1ccc(C(=O)NC(CCC(=O)O)C(=O)O)cc1)c1ccc2nc(N)nc(N)c2c1 (stereo not drawn)
4400 | C#CCN(Cc1ccc(C(=O)NC(CCC(=O)O)C(=O)O)cc1)c1ccc2nc(N)nc(N)c2c1 (stereo not drawn)
8600 | C#CCN(Cc1ccc(C(=O)NC(CCC(=O)O)C(=O)O)cc1)c1ccc2nc(N)nc(O)c2c1 (stereo not drawn)
> 10000 | Nc1nc(N)c2cc(CN(C=O)c3ccc(C(=O)NC(CCC(=O)O)C(=O)O)cc3)ccc2n1 (stereo not drawn)
600 | CN(Cc1ccc2nc(N)nc(N)c2c1)c1ccc(C(=O)NC(CCC(=O)O)C(=O)O)cc1 (stereo not drawn)
5000 | Nc1nc(N)c2cc(CNc3ccc(C(=O)NC(CCC(=O)O)C(=O)O)cc3)ccc2n1 (stereo not drawn)
33 | CN(Cc1ccc(C(=O)NC(CCC(=O)O)C(=O)O)cc1)c1ccc2nc(N)nc(N)c2c1 (stereo not drawn)
130 | CN(Cc1ccc2nc(N)nc(O)c2c1)c1ccc(C(=O)NC(CCC(=O)O)C(=O)O)cc1 (stereo not drawn)
2200 | Cc1c(NCc2ccc(C(=O)NC(CCC(=O)O)C(=O)O)cc2)ccc2nc(N)nc(O)c12 (stereo not drawn)
1300 | Nc1nc(=O)c2cc(NCc3ccc(C(=O)NC(CCC(=O)O)C(=O)O)cc3)ccc2[nH]1 (stereo not drawn)
150 | Cc1c(NCc2ccc(C(=O)NC(CCC(=O)O)C(=O)O)cc2)ccc2nc(N)nc(N)c12 (stereo not drawn)
190 | Nc1nc(N)c2c(Cl)c(CNc3ccc(C(=O)NC(CCC(=O)O)C(=O)O)cc3)ccc2n1 (stereo not drawn)
98 | Nc1nc(N)c2c(Cl)c(NCc3ccc(C(=O)NC(CCC(=O)O)C(=O)O)cc3)ccc2n1 (stereo not drawn)
4000 | Nc1nc(O)c2c(Cl)c(NCc3ccc(C(=O)NC(CCC(=O)O)C(=O)O)cc3)ccc2n1 (stereo not drawn)
550 | Nc1nc(N)c2cc(NCc3ccc(C(=O)NC(CCC(=O)O)C(=O)O)cc3)ccc2n1 (stereo not drawn)
6100 | C=CCN(Cc1ccc(C(=O)NC(CCC(=O)O)C(=O)O)cc1)c1ccc2nc(N)nc(O)c2c1 (stereo not drawn)
> 10000 | Nc1nc(N)c2cc(N(C=O)Cc3ccc(C(=O)NC(CCC(=O)O)C(=O)O)cc3)ccc2n1 (stereo not drawn)
200 | CN(Cc1ccc(C(=O)NC(CCC(=O)O)C(=O)O)cc1)c1ccc2nc(N)nc(O)c2c1 (stereo not drawn)
11000 | Nc1nc(O)c2cc(N(C=O)Cc3ccc(C(=O)NC(CCC(=O)O)C(=O)O)cc3)ccc2n1 (stereo not drawn)
700 | Cc1c(N(C)Cc2ccc(C(=O)NC(CCC(=O)O)C(=O)O)cc2)ccc2nc(N)nc(O)c12 (stereo not drawn)
